Test results reported in patent US20210382054A1, “METHODS FOR SCREENING UBIQUITIN LIGASE AGONISTS” (University of Washington, priority 2018, published 2021).

Each substance was assayed against T1, KEAP1-ssDNA12 and KRAS^G12D-ssDNA18 (Homo sapiens, UniProt P01116+Q14145, G12D) (assay: APTLAB (adjustable platform for tracking low affinity binding) detected by Octet BLI). Conditions: ssDNA bridge oligonucleotide alone, no compound (FIG. 8B).
T1 construct: full length human KRAS4B (UniProtKB-P01116-2) with a site mutation G12D; His-tag (N, cleaved yes); His-tag (N); made in house; host or cells: E. coli BL21 (DE3)
Description: While TR-FRET can be used as an informative second screen for hit validation, its principle is similar to AlphaScreen and relies on beads-based and proximity-induced signals. The hit compounds were further validated with additional methods that are distinct from AlphaScreen and TR-FRET methods. […] In other words, even though these compounds might be able to promote KRAS-KEAP1 interaction, the resulting ternary complex might be too unstable to be detected by the conventional methods. To overcome this problem, a new assay was designed (designated herein as APTLAB, adjustable platform for tracking low affinity binding) (FIG. 5), in which weak interactions between complementary DNA strands with variable length was used to enhance the compound-induced low affinity binding between KRAS and KEAP1 and render it detectable by conventional methods.
To couple adjustable DNA oligonucleotide interactions with low affinity protein-protein interaction, a protein fold, HUH, which is able to react with a specific single-stranded DNA (ssDNA) oligonucleotide and form a covalently linked protein-DNA conjugate (Lovendahl, K. N., Hayward, A. N. & Gordon, W. R. Sequence-Directed Covalent Protein-DNA Linkages in a Single Step Using HUH-Tags. J Am Chem Soc 139, 7030-7035, doi:10.1021/jacs.7b02572 (2017)), was utilized. HUH protein was fused to the C-terminus of KEAP1 and KRAS^G12D individually so that the two chimeric proteins can each form a covalent link with an ssDNA containing the HUH-reactive sequence (FIGS. 5 and 6). The purified HUH fusion proteins were adjusted to 100 μM in a buffer containing 20 mM HEPES (pH 7.5), 50 mM NaCl, 0.5 mM TCEP, 1 mM MgCl2 and 1 mM MnCl2. The ssDNA oligonulceotides were added to a final concentration of 120 μM. […]
ssDNA bridge oligonucleotides were synthesized with different lengths with 33, 28 and 23 nucleotides (nt) (FIG. 8A) and tested their ability to promote complex formation between the two ssDNA-protein conjugates as monitored by BLI. […]

Substance | complex formation between KEAP1-ssDNA12 and KRAS^G12D-ssDNA18, BLI binding signal
ssDNA-bridge23nt: ssDNA bridge oligonucleotide, 23 nucleotides, 5′-GTTGTTGTTTTGTATGGTGTGTG-3′ (chemistry not fully specified) | too weak to detect
ssDNA-bridge33nt: ssDNA bridge oligonucleotide, 33 nucleotides, 5′-GTTGTTGTTGTTGTTTTGTATGGTGTGTGGTGG-3′ (chemistry not fully specified) | high BLI signal
ssDNA-bridge28nt: ssDNA bridge oligonucleotide, 28 nucleotides, 5′-GTTGTTGTTGTTTTGTATGGTGTGTGGT-3′; inflection point bridge (chemistry not fully specified) | significantly lower
